Assay results from article PMC7211195 (Investigational New Drugs, 2019).
“And” between values parts separate entries of the source, which are not always exact repeats. Identical values can stand only once. Like-named read-outs stand apart in the source and are kept apart here.

Assay: Lapatinib pharmacokinetics and uptake in rat brain tissue (BT);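 as to BT corr (BT homogenate corrected), single rat: brain concentration corrected for residual brain blood by the Fridén method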;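 as to BT corr (BT homogenate), single rat: brain concentration corrected for residual brain blood by the Fridén method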
Format: in vivo, rats
Protocol: This study was conducted on rats, which are a promising model to predict P-gp-based drug-drug interactions at the human BBB [15]. The animals were allowed to acclimate for one week before the beginning of the experiments. Adult male Wistar-strain rats (weight 470–525 g) were used in the study. The animals were maintained under standard breeding conditions with a 12/12 h light-dark cycle (lights on at 6.00 a.m., lights off at 6.00 p.m.) at constant room temperature (23 ± 2 °C), relative humidity (55 ± 10%) and ad libitum access to food and water. The experimental protocol for this study was reviewed and approved by the Local Ethics Committee. To obtain consistent data, the study was based on the required minimum number of animals and observation time. […] Three rats were used at each time point (n = 3). In total, the research was conducted on 66 animals (n = 33 in the experimental group and n = 33 in the control group).
Elacridar was freshly dissolved in a vehicle at an initial concentration of 20 mg/mL. […] A volume of 80 μL of blood was collected from each rat by cutting off a piece of its tail. The blood samples were collected into heparinized test tubes at the following time points: […], and they were immediately centrifuged at 2880 g for 10 min at 4 °C. The anaesthetized rats (anaesthetized by intramuscular administration of 50 mg/kg ketamine and 10 mg/kg xylazine) were prepared for cisterna magna puncture. The hair over the puncture was removed and the skin was disinfected with alcohol. The animals were placed in a recumbent position with an elevated rear part of the body. The animals’ heads were slightly flexed and immobilized with the operator’s left hand. The space between the occiput rostrally and the atlas (C1) of the spinal column caudally was gently palpated with the left thumb. A 0.7 × 20 G needle with polyethylene tubing (Terumo Poland, Warsaw, Poland) was gently inserted at an approximate angle of 80–90° through the skin with the operator’s right hand into the midsagittal region. The moment that dura mater perforation was perceptible, a small amount of CSF was found in the needle tubing. To sample additional CSF, a 1 mL insulin syringe (Becton Dickinson, Warsaw, Poland) was used to collect 80–120 μL of CSF by very gentle aspiration. Only clear CSF was collected for further analysis. […] The animals’ brains were immediately dissected, washed in 0.9% NaCl and divided along the longitudinal axis. One of the brain hemispheres was again rinsed three times with 5 mL of 0.9% NaCl, weighed and homogenized with 0.9% NaCl (4 mL per 1 g of BT) in an Ultra-Turrax homogenizer (Witko, Łódź, Poland). The homogenate was then centrifuged at 4500 g for 10 min. All samples of the rat BP, CSF, and BT homogenate supernatant were stored at −80 °C until analysis.
The chromatographic analysis was conducted using a 1260 Infinity system (Agilent Technologies, Santa Clara, USA) equipped with a Kinetex® C18 column (50 × 4.6 mm, 2.6 μm, Phenomenex, Torrance, USA), which was maintained at 35 °C. The mobile phase consisted of 0.1% formic acid (v/v) in water with 5 mM ammonium formate (solvent A) and acetonitrile with 10% phase A (v/v, solvent B). The analyte and internal standard (IS, erlotinib) were eluted using a gradient run of 10 min as follows: 95% A at 0–2 min; 95%–5% A at 2–4 min; 5% A at 4–5 min; 5%–95% A at 5–6 min; 95% A at 6–10 min. The flow rate and injection volume were set at 0.7 mL/min and 10 μL, respectively. The needle was washed for 30 s in a mixture of acetonitrile, methanol, isopropanol, water, and formic acid (50:20:15:15:0.25, v/v/v/v/v).

[1] = male, Wistar, rat, brain tissue homogenate, corrected for residual blood, po, 100 mg/kg, lapatinib p.o. 100 mg/kg alone, read-out: BT corr (BT homogenate corrected), S
[2] = male, Wistar, rat, brain tissue homogenate, corrected for residual blood, po, 100 mg/kg, lapatinib p.o. 100 mg/kg alone, read-out: BT corr (BT homogenate corrected), single rat
[3] = male, Wistar, rat, brain tissue homogenate, oral, lapatinib 100 mg/kg + elacridar, read-out: BT corr (BT homogenate), S
[4] = male, Wistar, rat, brain tissue homogenate, oral, lapatinib 100 mg/kg + elacridar, read-out: BT corr (BT homogenate), single rat

BT corr (BT homogenate corrected), single rat (lapatinib p.o. 100 mg/kg alone, 1 h, 100 mg/kg): 62.82 ng/mL | BT corr (BT homogenate corrected), single rat (lapatinib p.o. 100 mg/kg alone, 1 h, listed as Lapatinib, 100 mg/kg): 62.82 ng/mL | BT corr (BT homogenate corrected), single rat (lapatinib p.o. 100 mg/kg alone, 4 h, 100 mg/kg): 135.24 ng/mL | BT corr (BT homogenate corrected), single rat (lapatinib p.o. 100 mg/kg alone, 4 h, listed as Lapatinib, 100 mg/kg): 135.24 ng/mL | BT corr (BT homogenate corrected), single rat (lapatinib p.o. 100 mg/kg alone, 6 h, 100 mg/kg): 116.18 ng/mL and 47.54 ng/mL | BT corr (BT homogenate corrected), single rat (lapatinib p.o. 100 mg/kg alone, 6 h, listed as Lapatinib, 100 mg/kg): 116.18 ng/mL and 47.54 ng/mL | BT corr (BT homogenate corrected), single rat (lapatinib p.o. 100 mg/kg alone, 8 h, 100 mg/kg): 44.94 ng/mL | BT corr (BT homogenate corrected), single rat (lapatinib p.o. 100 mg/kg alone, 8 h, listed as Lapatinib, 100 mg/kg): 44.94 ng/mL | BT corr (BT homogenate corrected), single rat (lapatinib p.o. 100 mg/kg alone, 12 h, 100 mg/kg): 10.91 ng/mL | BT corr (BT homogenate corrected), single rat (lapatinib p.o. 100 mg/kg alone, 12 h, listed as Lapatinib, 100 mg/kg): 10.91 ng/mL | Kp (male, Wistar, rat, brain tissue (homogenate supernatant), po, 100 mg/kg, read-out: Kp (tissue-to-plasma partition coefficient, AUC0-∞-tissue/AUC0-∞-plasma)): 0.036 | concentration at 4 h (male, Wistar, rat, brain tissue homogenate, corrected for residual blood, oral, lapatinib 100 mg/kg + elacridar, 4 h, read-out: BT corr (BT homogenate), single rat): 78.2 ng/mL | concentration at 6 h (male, Wistar, rat, brain tissue homogenate, corrected for residual blood, oral, lapatinib 100 mg/kg + elacridar, 6 h, read-out: BT corr (BT homogenate), single rat): 87.3 ng/mL | concentration at 8 h (male, Wistar, rat, brain tissue homogenate, corrected for residual blood, oral, lapatinib 100 mg/kg + elacridar, 8 h, read-out: BT corr (BT homogenate), single rat): 91.5 ng/mL | concentration at 12 h (male, Wistar, rat, brain tissue homogenate, corrected for residual blood, oral, lapatinib 100 mg/kg + elacridar, 12 h, read-out: BT corr (BT homogenate), single rat): 63.6 ng/mL | concentration at 24 h (male, Wistar, rat, brain tissue homogenate, corrected for residual blood, oral, lapatinib 100 mg/kg + elacridar, 24 h, read-out: BT corr (BT homogenate), single rat): 52.7 ng/mL | concentration at 0.25 h [1]: 27.9 ng/mL | concentration at 0.25 h [2]: 22.5 ng/mL | concentration at 0.5 h [1]: 31.5 ng/mL | concentration at 0.5 h [2]: 24 ng/mL | concentration at 1 h (male, Wistar, rat, brain tissue homogenate, corrected for residual blood, po, 100 mg/kg, lapatinib p.o. 100 mg/kg alone, 1 h, read-out: BT corr (BT homogenate corrected), S): 55.5 ng/mL | concentration at 1 h (male, Wistar, rat, brain tissue homogenate, corrected for residual blood, po, 100 mg/kg, lapatinib p.o. 100 mg/kg alone, 1 h, read-out: BT corr (BT homogenate corrected), single rat): 48.1 ng/mL | concentration at 2 h [1]: 41.4 ng/mL | concentration at 2 h [2]: 30.1 ng/mL | concentration at 3 h [1]: 111 ng/mL | concentration at 3 h [2]: 139 ng/mL | concentration at 4 h (male, Wistar, rat, brain tissue homogenate, corrected for residual blood, po, 100 mg/kg, lapatinib p.o. 100 mg/kg alone, 4 h, read-out: BT corr (BT homogenate corrected), S): 115 ng/mL | concentration at 4 h (male, Wistar, rat, brain tissue homogenate, corrected for residual blood, po, 100 mg/kg, lapatinib p.o. 100 mg/kg alone, 4 h, read-out: BT corr (BT homogenate corrected), single rat): 94.2 ng/mL | concentration at 6 h (male, Wistar, rat, brain tissue homogenate, corrected for residual blood, po, 100 mg/kg, lapatinib p.o. 100 mg/kg alone, 6 h, read-out: BT corr (BT homogenate corrected), S): 81.9 ng/mL | concentration at 8 h (male, Wistar, rat, brain tissue homogenate, corrected for residual blood, po, 100 mg/kg, lapatinib p.o. 100 mg/kg alone, 8 h, read-out: BT corr (BT homogenate corrected), S): 66.2 ng/mL | concentration at 8 h (male, Wistar, rat, brain tissue homogenate, corrected for residual blood, po, 100 mg/kg, lapatinib p.o. 100 mg/kg alone, 8 h, read-out: BT corr (BT homogenate corrected), single rat): 87.5 ng/mL | concentration at 12 h (male, Wistar, rat, brain tissue homogenate, corrected for residual blood, po, 100 mg/kg, lapatinib p.o. 100 mg/kg alone, 12 h, read-out: BT corr (BT homogenate corrected), S): 44.5 ng/mL | concentration at 0.25 h [3]: 33.1 ng/mL | concentration at 0.25 h [4]: 30.7 ng/mL | concentration at 0.5 h [3]: 43.6 ng/mL | concentration at 0.5 h [4]: 45.2 ng/mL | concentration at 1 h (male, Wistar, rat, brain tissue homogenate, oral, lapatinib 100 mg/kg + elacridar, 1 h, read-out: BT corr (BT homogenate), S): 79.1 ng/mL | concentration at 1 h (male, Wistar, rat, brain tissue homogenate, oral, lapatinib 100 mg/kg + elacridar, 1 h, read-out: BT corr (BT homogenate), single rat): 74.9 ng/mL
Compound: CS(=O)(=O)CCNCc1ccc(-c2ccc3ncnc(Nc4ccc(OCc5cccc(F)c5)c(Cl)c4)c3c2)o1 [lapatinib, N-{3-Chloro-4-[(3-fluorobenzyl)oxy]phenyl}-6-[5-({[2-(methylsulfonyl)ethyl]amino}methyl)-2-furyl]-4-quinazolinamine]
